Experimental findings from patent US20250099548A1, “PHARMACEUTICAL COMPOSITION FOR PREVENTING OR TREATING DEGENERATIVE BRAIN DISEASES, CONTAINING GLUCAGON-LIKE PEPTIDE-1 AND INTERLEUKIN-1 RECEPTOR ANTAGONIST” (GI INNOVATION, INC., priority 2022, published 2025) are described below.

Common to all, as to format: in vivo, mouse
Experiment [1] concerns Tg-APP/PS1 mice. Briefly: MAP-2 immunofluorescence staining of hippocampal CA1 region. Conditions: 4 times for 2 weeks. The source says: Long-term memory is regulated at synapses between axons of neurons and dendrites of target neurons, and the microstructure of neurons is greatly influenced by the state of neuron health. Changes in the microstructure of dendrites of neurons are important for maintaining memory. The microstructure of the dendrites of such neurons can be observed as an image by staining with an anti-MAP-2 antibody (GeneTex, CatNo. GTX133109) located in the dendrites.
Therefore, in order to determine the mechanism of action of cognitive function improvement and memory recovery effects of GI210B1, the Tg-APP/PS1 mice administered with GI210B1 (Tg+GI210B1), the wild type mice (WT) as a normal group, and the Tg-APP/PS1 mice (Tg or Tg+Veh) as a control group were sacrificed, and then the brain tissue was extracted, and the microstructural status of the dendrites (dendritic process) of the hippocampus was analyzed.
In the same manner as in Example 1.4.1 above, the mice from each group were sacrificed, and then the brain tissue was extracted, and the microstructural status of the dendrites of the hippocampus was analyzed.

Experiment [2] relates to Tg-APP/PS1 mice. The experiment is described as follows: Passive avoidance test. Conditions: Example 1; 72 and 120 hours after the shock; 1.2 mg/kg intraperitoneal, 4 times for 2 weeks. The protocol:
The test substance was prepared by diluting GI210B1 obtained in Preparation Example 1 in saline, and it was intraperitoneally administered to 6.5-month-old Tg-APP/PS1 mice at a concentration of 1.2 mg/kg a total of 4 times for 2 weeks (FIG. 10).
In the Tg-APP/PS1 mice intraperitoneally administered with GI210B1 at 6.5 months of age in Example 1.1 above, behavioral characteristics of cognitive function were evaluated at 7.5 to 8.0 months of age. In order to evaluate the behavioral characteristics of cognitive function, a novel object recognition test (NOR test), a passive avoidance test, and a water maze test were performed. At that time, the three experiments for behavioral evaluation were performed according to a method known in the art.
The passive avoidance test is a test to confirm fear/anxiety memory by associating spatial contextual cues and shock in mice for long periods of 24 hours, 72 hours, and 120 hours. The passive avoidance test is a cognitive behavior evaluation experiment conducted to confirm memories associated with spatial and contextual cues, specifically fear and anxiety. […]
Specifically, mice have a tendency to prefer a dark place. […] The mice prepared in Example 1.1 were learned in the same manner as above, and the time for each step was measured.

Experiment [3] deals with Tg-APP/PS1 mice. The experiment is described as follows: Aβ plaque deposition in brain tissue, thioflavin S staining. Conditions: 4 times for 2 weeks. The protocol: Accordingly, in order to confirm the effect of treating Alzheimer's disease by intraperitoneal administration of GI210B1, the Tg-APP/PS1 mice administered with GI210B1 (Tg+GI210B1) and the Tg-APP/PS1 mice (Tg+Veh), a control group, were sacrificed, and then the brain tissue was extracted, and Aβ plaques were stained using thioflavin S, and then the degree of Aβ plaque deposition in the parietal cortex, hippocampus, and piriform cortex regions was analyzed.
Specifically, for immunohistochemical analysis using thioflavin S staining, the brain was collected after perfusion for the mouse with 4% paraformaldehyde, and then the brain was further fixed with 4% paraformaldehyde overnight at 4° C. The brain tissue sections were prepared by cutting the fixed brain tissue to a thickness of […] using a vibratome. The prepared brain tissue sections were stained using thioflavin S by a known method. At that time, the stained image was analyzed using MetaMorph Microscopy Automation & Image Analysis software (Molecular device). The amount of plaque was quantified and expressed as the number of plaques per unit area and the sum of the plaque areas.
The Tg-APP/PS1 mice were prepared in the same manner as in Example 1.1 above. The test substance was prepared by diluting GI210B1, GI210B1C1, or GI210B1CN obtained in Preparation Example 1 to 3 in saline. Thereafter, the prepared test substances were each intraperitoneally administered to the 6.5-month-old Tg-APP/PS1 mice at a concentration of 1.2 mg/kg, 0.7778 mg/kg, and 1.1745 mg/kg a total of 4 times for 2 weeks (FIG. 23).
In the same manner as in Example 1.3 above, the mice were sacrificed, and then the brain tissue was extracted, and the degree of Aβ plaque deposition in the parietal cortex, hippocampus, and piriform cortex regions was analyzed using thioflavin S, which stains Aβ plaques.
The Tg-APP/PS1 mice were prepared in the same manner as in Example 1.1 above. The test substance was prepared by diluting GLP-1 (Peptron), GI210B1C1 obtained in Preparation Example 2 and GI212B2 obtained in Preparation Example 4, anakinra (Amgen, Kineret-inj), and the anti-IL-1 antibody (BioXcell, BE0246) in saline to concentrations of 0.0371 mg/kg, 1.1745 mg/kg, 1.8722 mg/kg, 0.2041 mg/kg, and 1.77 mg/kg, respectively. Thereafter, the prepared test substances were intraperitoneally administered to the 6.5-month-old Tg-APP/PS1 mice a total of 4 times for 2 weeks, as shown in Table 6 below (FIG. 30). […]
In the same manner as in Example 1.3 above, the mice from each group were sacrificed, and then the brain tissue was extracted, and the degree of Aβ plaque deposition in the parietal cortex, hippocampus, and piriform cortex regions was analyzed using thioflavin S, which stains Aβ plaques.

Where [4] appears, read: Example 2, GI210B1, GI210B1C1, GI210B1CN at 1.2, 0.7778, 1.1745 mg/kg intraperitoneal.

Consider “GI210B1: fusion protein dimer comprising GLP-1 (SEQ ID NO: 2), IgG4 Fc domain and IL-1Ra; SEQ ID NO: 10”, for which the “expression level of MAP-2 in the CA1 region of the hippocampus” value is on record as “recovered to the level of the normal group (WT)” with Tg-APP/PS1 mice [1] (Example 1, GI210B1 1.2 mg/kg intraperitoneal) and “higher than that of the control group (Tg+Veh)” in the experiment with Tg-APP/PS1 mice [1] (setting [4]). Also, the “moving to the dark chamber after foot shock” value in the experiment on Tg-APP/PS1 mice [2] is on record as “had a tendency not to move to the dark chamber”. Further, the “amount of plaque deposited in the brain (number of plaques per unit area and sum of plaque areas)” value with Tg-APP/PS1 mice [3] (Example 1, parietal cortex, hippocampus, piriform cortex, GI210B1 1.2 mg/kg intraperitoneal) is given as “tended to be reduced compared to the control group”; in the experiment with Tg-APP/PS1 mice [3] (setting [4]), “statistically significantly reduced compared to the control group (Tg+Veh)”; with Tg-APP/PS1 mice [3] (Example 2, GI210B1, GI210B1C1, GI210B1CN at 1.2, 0.7778, 1.1745 mg/kg intraperitoneal, listed as G2101B1), “tended to be reduced”.
